This note sets out measurements from patent US9777005B2 (Takeda Pharmaceutical Company Limited, priority 2012, dated 2017).

Structures are written as SMILES.

This experiment has as its target T1, human M1 receptor (hCHRM1) (Homo sapiens, UniProt P11229).
T1 construct: expressed in transfected cells; host or cells: CHO-K1
T1 sequence (P11229 1-460): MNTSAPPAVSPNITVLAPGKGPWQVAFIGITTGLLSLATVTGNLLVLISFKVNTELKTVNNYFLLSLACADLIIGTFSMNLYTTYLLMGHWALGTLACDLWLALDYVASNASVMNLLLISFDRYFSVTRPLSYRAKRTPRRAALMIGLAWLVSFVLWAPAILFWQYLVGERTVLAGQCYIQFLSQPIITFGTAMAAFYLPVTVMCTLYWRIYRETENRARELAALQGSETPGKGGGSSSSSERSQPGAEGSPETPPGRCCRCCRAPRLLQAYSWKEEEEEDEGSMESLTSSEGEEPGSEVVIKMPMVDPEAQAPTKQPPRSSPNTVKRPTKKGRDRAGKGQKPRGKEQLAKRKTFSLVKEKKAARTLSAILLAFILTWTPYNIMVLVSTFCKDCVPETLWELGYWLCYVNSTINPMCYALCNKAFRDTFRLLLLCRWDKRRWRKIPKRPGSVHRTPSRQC
Put plainly: Measurement of M1 receptor positive allosteric modulator (M1PAM) activity, calcium fluorescence (FLIPRtetra) in CHO-K1 cells in the presence of acetylcholine at EC20. The class given is cell-based. Particulars: in the presence of acetylcholine at EC20 (final 0.6 nM), CHO-K1 cells expressing hCHRM1; for EC50: inflection point of M1PAM activity, read-out: IP value; for activity (%) at 10 μM: test compound 10 μM. The method in brief:
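CHO-K1 cells expressing human M1 were loaded with Fluo-4 AM, and compound was added with acetylcholine at EC20 (final 0.6 nM). Calcium fluorescence was read on FLIPRtetra for 1 min. Activity was normalized to 1 μM acetylcholine (100%) and DMSO (0%), and the curve inflection point was reported as IP.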

Regarding `Cc1ccc(Oc2nccc3c2C(=O)N(Cc2ccc(-c4ccn(C)n4)cc2)C3)c(F)c1` [Example 420, 4-(2-fluoro-4-methylphenoxy)-2-(4-(1-methyl-1H-pyrazol-3-yl)benzyl)-1,2-dihydro-3H-pyrrolo[3,4-c]pyridin-3-one], the EC50 came out at 39 nM and the “activity (%) at 10 μM” value was 101%.
Regarding `Cc1cc(C(F)(F)F)cc(F)c1Oc1nccc2c1C(=O)N(Cc1ccc(-c3ccn(C)n3)cc1)C2` [Example 421, 4-(2-fluoro-6-methyl-4-(trifluoromethyl)phenoxy)-2-(4-(1-methyl-1H-pyrazol-3-yl)benzyl)-1,2-dihydro-3H-pyrrolo[3,4-c]pyridin-3-one], the EC50 is 39 nM and the “activity (%) at 10 μM” value stood at 112%.
On to `NC(=O)c1ccc(CN2Cc3ccnc(Oc4ccc(C(F)(F)F)cc4F)c3C2=O)cc1` [Example 422, 4-((4-(2-fluoro-4-(trifluoromethyl)phenoxy)-3-oxo-1,3-dihydro-2H-pyrrolo[3,4-c]pyridin-2-yl)methyl)benzamide], for which the EC50 turned out to be 12 nM and the “activity (%) at 10 μM” value is 107%.
Turning to `C[C@@H](O)[C@@H](C)Oc1nccc2c1C(=O)N(Cc1ccc(Cl)cc1)C2` [Example 423, 2-(4-chlorobenzyl)-4-(((2R,3R)-3-hydroxybutan-2-yl)oxy)-1,2-dihydro-3H-pyrrolo[3,4-c]pyridin-3-one], the EC50 amounted to 90 nM and the “activity (%) at 10 μM” value came out at 96%.
In the case of `C[C@@H](O)[C@@H](C)Oc1nccc2c1C(=O)N(Cc1ccc(F)cc1F)C2` [Example 424, 2-(2,4-difluorobenzyl)-4-(((2R,3R)-3-hydroxybutan-2-yl)oxy)-1,2-dihydro-3H-pyrrolo[3,4-c]pyridin-3-one], the EC50 amounted to 88 nM and the “activity (%) at 10 μM” value is 106%.
For `C[C@@H](O)[C@@H](C)Oc1nccc2c1C(=O)N(Cc1c(F)cc(F)cc1F)C2` [Example 425, 4-(((2R,3R)-3-hydroxybutan-2-yl)oxy)-2-(2,4,6-trifluorobenzyl)-1,2-dihydro-3H-pyrrolo[3,4-c]pyridin-3-one], in that order: 86 nM and 102%.
For `C[C@@H](O)[C@@H](C)Oc1nccc2c1C(=O)N(Cc1ccc(-c3ccn(C)n3)cc1)C2` [Example 426, 4-(((2R,3R)-3-hydroxybutan-2-yl)oxy)-2-(4-(1-methyl-1H-pyrazol-3-yl)benzyl)-1,2-dihydro-3H-pyrrolo[3,4-c]pyridin-3-one], in that order: 8.8 nM and 102%.
Regarding `Cc1ccc(Oc2nccc3c2C(=O)N(Cc2ccc(-n4cnc(C)c4)cc2)C3)c(F)c1` [Example 427, 4-(2-fluoro-4-methylphenoxy)-2-(4-(4-methyl-1H-imidazol-1-yl)benzyl)-1,2-dihydro-3H-pyrrolo[3,4-c]pyridin-3-one], the EC50 was 31 nM and the “activity (%) at 10 μM” value is reported as 111%.
Regarding `Cc1cc(F)c(Oc2nccc3c2C(=O)N(Cc2ccc(-n4cnc(C)c4)cc2)C3)c(F)c1` [Example 428, 4-(2,6-difluoro-4-methylphenoxy)-2-(4-(4-methyl-1H-imidazol-1-yl)benzyl)-1,2-dihydro-3H-pyrrolo[3,4-c]pyridin-3-one], the EC50 is 14 nM and the “activity (%) at 10 μM” value is on record as 106%.
With `CCc1cc(F)c(Oc2nccc3c2C(=O)N(Cc2ccc(-n4cnc(C)c4)cc2)C3)c(F)c1` [Example 429, 4-(4-ethyl-2,6-difluorophenoxy)-2-(4-(4-methyl-1H-imidazol-1-yl)benzyl)-1,2-dihydro-3H-pyrrolo[3,4-c]pyridin-3-one], the EC50 came out at 11 nM and the “activity (%) at 10 μM” value stood at 109%.
As to `CCc1cc(F)c(Oc2nccc3c2C(=O)N(Cc2ccc(-c4ccn(C)n4)cc2)C3)c(F)c1` [Example 430, 4-(4-ethyl-2,6-difluorophenoxy)-2-(4-(1-methyl-1H-pyrazol-3-yl)benzyl)-1,2-dihydro-3H-pyrrolo[3,4-c]pyridin-3-one], the EC50 worked out at 17 nM and the “activity (%) at 10 μM” value is reported as 110%.
Regarding `CNC(=O)c1ccc(CN2Cc3ccnc(Oc4ccc(C(F)(F)F)cc4F)c3C2=O)cc1` [Example 431, 4-((4-(2-fluoro-4-(trifluoromethyl)phenoxy)-3-oxo-1,3-dihydro-2H-pyrrolo[3,4-c]pyridin-2-yl)methyl)-N-methylbenzamide], the EC50 was 6.8 nM and the “activity (%) at 10 μM” value worked out at 103%.
For the compound `CCNC(=O)c1ccc(CN2Cc3ccnc(Oc4ccc(C(F)(F)F)cc4F)c3C2=O)cc1` [Example 432, N-ethyl-4-((4-(2-fluoro-4-(trifluoromethyl)phenoxy)-3-oxo-1,3-dihydro-2H-pyrrolo[3,4-c]pyridin-2-yl)methyl)benzamide], the EC50 is 52 nM and the “activity (%) at 10 μM” value is 92%.
Consider `CNC(=O)c1ccc(CN2Cc3ccnc(Oc4ccc(C)cc4F)c3C2=O)cc1` [Example 433, 4-((4-(2-fluoro-4-methylphenoxy)-3-oxo-1,3-dihydro-2H-pyrrolo[3,4-c]pyridin-2-yl)methyl)-N-methylbenzamide], for which the EC50 amounted to 10 nM and the “activity (%) at 10 μM” value was determined as 101%.
Consider `CCNC(=O)c1ccc(CN2Cc3ccnc(Oc4ccc(C)cc4F)c3C2=O)cc1` [Example 434, N-ethyl-4-((4-(2-fluoro-4-methylphenoxy)-3-oxo-1,3-dihydro-2H-pyrrolo[3,4-c]pyridin-2-yl)methyl)benzamide], for which the EC50 worked out at 26 nM and the “activity (%) at 10 μM” value amounted to 95%.
In the same order, the values of `CNC(=O)c1ccc(CN2Cc3ccnc(Oc4ccc(C(F)(F)F)cc4F)c3C2=O)cc1F` [Example 435, 2-fluoro-4-((4-(2-fluoro-4-(trifluoromethyl)phenoxy)-3-oxo-1,3-dihydro-2H-pyrrolo[3,4-c]pyridin-2-yl)methyl)-N-methylbenzamide] are 30 nM and 102%.
For `CCNC(=O)c1ccc(CN2Cc3ccnc(Oc4ccc(C(F)(F)F)cc4F)c3C2=O)cc1F` [Example 436, N-ethyl-2-fluoro-4-((4-(2-fluoro-4-(trifluoromethyl)phenoxy)-3-oxo-1,3-dihydro-2H-pyrrolo[3,4-c]pyridin-2-yl)methyl)benzamide], in that order: 41 nM and 106%.
For `CNC(=O)c1ccc(CN2Cc3ccnc(Oc4ccc(C)cc4F)c3C2=O)cc1F` [Example 437, 2-fluoro-4-((4-(2-fluoro-4-methylphenoxy)-3-oxo-1,3-dihydro-2H-pyrrolo[3,4-c]pyridin-2-yl)methyl)-N-methylbenzamide], in that order: 78 nM and 98%.
In the case of `NC(=O)c1ccc(CN2Cc3ccnc(Oc4ccc(C(F)(F)F)cc4F)c3C2=O)cc1F` [Example 438, 2-fluoro-4-((4-(2-fluoro-4-(trifluoromethyl)phenoxy)-3-oxo-1,3-dihydro-2H-pyrrolo[3,4-c]pyridin-2-yl)methyl)benzamide], the EC50 is 14 nM and the “activity (%) at 10 μM” value is 101%.
In the case of `CNC(=O)c1ccc(CN2Cc3cccc(Oc4ccc(C(F)(F)F)cc4F)c3C2=O)cc1` [Example 439, 4-((7-(2-fluoro-4-(trifluoromethyl)phenoxy)-1-oxo-1,3-dihydro-2H-isoindol-2-yl)methyl)-N-methylbenzamide], the EC50 came to 13 nM and the “activity (%) at 10 μM” value is listed as 96%.
For `Cc1ccc(Oc2nccc3c2C(=O)N(Cc2ccc(C(N)=O)c(F)c2)C3)c(F)c1` [Example 440, 2-fluoro-4-((4-(2-fluoro-4-methylphenoxy)-3-oxo-1,3-dihydro-2H-pyrrolo[3,4-c]pyridin-2-yl)methyl)benzamide], the EC50 came to 70 nM and the “activity (%) at 10 μM” value was determined as 100%.
With `CCNC(=O)c1ccc(CN2Cc3ccnc(Oc4ccc(C)cc4F)c3C2=O)c(F)c1` [Example 441, N-ethyl-3-fluoro-4-((4-(2-fluoro-4-methylphenoxy)-3-oxo-1,3-dihydro-2H-pyrrolo[3,4-c]pyridin-2-yl)methyl)benzamide], the EC50 is 44 nM and the “activity (%) at 10 μM” value was determined as 100%.
For `CNC(=O)c1ccc(CN2Cc3ccnc(Oc4ccc(Br)cc4F)c3C2=O)cc1F` [Example 442, 4-((4-(4-bromo-2-fluorophenoxy)-3-oxo-1,3-dihydro-2H-pyrrolo[3,4-c]pyridin-2-yl)methyl)-2-fluoro-N-methylbenzamide], in that order: 38 nM and 100%.
In the case of `CCc1ccc(Oc2nccc3c2C(=O)N(Cc2ccc(C(=O)NC)c(F)c2)C3)c(F)c1` [Example 443], the EC50 worked out at 31 nM and the “activity (%) at 10 μM” value worked out at 101%.
Regarding `CCc1ccc(Oc2nccc3c2C(=O)N(Cc2ccc(C(=O)NC)cc2)C3)c(F)c1` [Example 444, 4-((4-(4-ethyl-2-fluorophenoxy)-3-oxo-1,3-dihydro-2H-pyrrolo[3,4-c]pyridin-2-yl)methyl)-N-methylbenzamide], the EC50 was determined as 17 nM and the “activity (%) at 10 μM” value turned out to be 100%.
